pIC50: −log10 of the molar value.

T1 sequence (P26663 1027-1657): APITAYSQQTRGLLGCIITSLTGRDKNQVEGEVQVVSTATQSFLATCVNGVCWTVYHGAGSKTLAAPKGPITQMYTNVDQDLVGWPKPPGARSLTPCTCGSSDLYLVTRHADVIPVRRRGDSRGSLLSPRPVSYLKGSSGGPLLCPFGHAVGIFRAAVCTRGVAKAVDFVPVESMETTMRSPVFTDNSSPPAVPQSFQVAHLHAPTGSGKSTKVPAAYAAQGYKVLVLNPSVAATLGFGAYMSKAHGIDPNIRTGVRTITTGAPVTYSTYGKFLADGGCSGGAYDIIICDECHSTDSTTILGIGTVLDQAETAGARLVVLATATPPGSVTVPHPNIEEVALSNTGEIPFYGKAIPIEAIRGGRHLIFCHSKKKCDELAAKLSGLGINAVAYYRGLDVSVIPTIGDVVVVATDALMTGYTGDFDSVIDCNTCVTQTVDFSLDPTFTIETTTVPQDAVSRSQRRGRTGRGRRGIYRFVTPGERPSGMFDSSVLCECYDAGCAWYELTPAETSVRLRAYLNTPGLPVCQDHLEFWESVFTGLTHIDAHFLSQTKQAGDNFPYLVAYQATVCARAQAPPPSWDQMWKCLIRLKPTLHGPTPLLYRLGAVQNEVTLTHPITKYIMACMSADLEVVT
T1 sequence (P26663 1658-1711): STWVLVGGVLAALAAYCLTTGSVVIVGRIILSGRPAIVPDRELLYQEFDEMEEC

One assay has as its target T1, full length NS3 protein noncovalently complexed with the full-length NS4A cofactor protein (NS3/NS4A complex) (Hepatitis C virus genotype 1b, UniProt P26663).
T1 construct: full length NS3 protein spanning residues 1027–1657 of the HCV polyprotein
The experiment in a line: Full-length NS3-NS4A heterodimer protein assay (Assay A). The class given is biochemical, hepatitis C virus (HCV). The settings on record: Table 5; full-length NS3/NS4A; read-out: AssayA. The method, then:
Full-Length NS3-NS4A Heterodimer Protein Assay (Assay A)
(Gallinari, P., Paolini, C., Brennan, D., Nardi, C., Steinkühler, C. and De Francesco, R. Modulation of hepatitis C virus NS3 protease and helicase activities through the interaction with NS4A. Biochemistry 38, 5620–5632, 1999)
In this assay the full length NS3 protein spanning residues 1027–1657 of the HCV polyprotein, noncovalently complexed with the full-length NS4A cofactor protein (residues 1658–1711) was used. Assays were performed in 60 μl of a buffer containing 50 mM Hepes pH 7.5, 0.15 M NaCl, 0.1% (v/v) Triton X-100, 15% (v/v) glycerol, 10 mM DTT, 2 nM NS3/NS4A complex. To this assay mix 10 μM (final concentration) of a peptide substrate corresponding to the NS5AB cleavage site and having the sequence of the NS5A-NS5B peptide, were added. Incubation times at 23° C. were adjusted to obtain <10% conversion. Reactions were stopped by the addition of 40 μl of 1% TFA. Cleavage was determined by HPLC using a Merck-Hitachi chromatograph equipped with an autosampler. 80 μl samples were injected on a Lichrospher C18 reversed phase cartridge column (4×74 mm, 5 μm, Merck) and fragments were separated using a 10–40% acetonitrile gradient at 5%/min using a flow rate of 2.5 ml/min. Peak detection was done by monitoring both the absorbance at 220 nm and tryptophan fluorescence (λex=280 nm, λem=350 nm). Cleavage products were quantitated by integration of chromatograms with respect to appropriate standards. Kinetic parameters were calculated from nonlinear least-squares fit of initial rates as a function of substrate concentration with the help of a Kaleidagraph software, assuming Michaelis-Menten kinetics.
Ki values of peptide inhibitors were calculated from substrate titration experiments performed in the presence of increasing amounts of inhibitor. Experimental data sets were simultaneously fitted to eg.1 using a multicurve fit macro with the help of a Sigmaplot software: V=(VmaxS)/(Km([…])+S); (eq.1) Alternatively, Ki values were derived from IC50 values, calculated using a four-parameter logistic function, according to eq.2: IC50=(1+S/Km)Ki (eq.2)
On to `COc1cccc(S(=O)(=O)[C@@H]2C[C@@H](C(=O)N[C@@H](CC(F)F)C(=O)NCCc3c(F)cc(C(=O)O)cc3F)N(C(=O)[C@@H](NC(=O)OCC(C)C)C(C)C)C2)c1` [Compound 547], for which the pIC50 was more than 6.00.

For `CC(C)COC(=O)N[C@@H](CCC(=O)O)C(=O)N1C[C@H](c2ccccc2)C[C@H]1C(=O)N[C@@H](CS)C(=O)NCCc1ccccc1Br` [Compound 508], the pIC50 is more than 4.00.

`CC(C)COC(=O)N[C@@H](CCC(=O)O)C(=O)N1C[C@H](c2ccccc2)C[C@H]1C(=O)N[C@@H](CC(F)F)C(=O)NCCc1ccccc1-c1ccccc1` [Compound 510]: the pIC50 is more than 5.00.

Take `CC(C)COC(=O)NC(CCC(=O)O)C(=O)N1CCCC1C(=O)NC(CS)C(=O)NCCc1ccccc1Cl` (stereo not drawn) [Compound 501]: the pIC50 is more than 4.00.

Regarding `CC(C)COC(=O)N[C@H](C(=O)N1C[C@H]([S+]([O-])C2CCCCC2)C[C@H]1C(=O)N[C@@H](CC(F)F)C(=O)NCCc1c(F)cc(C(=O)O)cc1F)C(C)C` (mixture of isomers) [Compound 552], the pIC50 is more than 6.00.

As for `CC(C)COC(=O)N[C@H](C(=O)N1C[C@H](c2ccccc2)C[C@H]1C(=O)N[C@@H](CC(F)F)C(=O)NCCc1[nH]c2ccccc2c1CCC(=O)O)C(C)C` [Compound 572], the pIC50 is more than 4.00.

With `CC(C)COC(=O)N[C@H](C(=O)N1C[C@H](c2ccccc2)C[C@H]1C(=O)N[C@@H](CC(F)F)C(=O)NCCc1cccc(OCC(=O)O)c1)C(C)C` [Compound 562], the pIC50 is more than 4.00.

Turning to `CC(C)COC(=O)NC(C(=O)N1CCCC1C(=O)NC(CC(F)F)C(=O)NCCc1c(F)cc(C(=O)O)cc1F)C(C)C` (stereo not drawn) [Compound 502], the pIC50 is more than 5.00.

Consider `CC(C)COC(=O)N[C@@H](CCC(=O)O)C(=O)N1C[C@H](c2ccccc2)CC1C(=O)N[C@@H](CS)C(=O)NCCc1ccccc1Cl` (stereo partly drawn) [Compound 506], for which the pIC50 is more than 5.00.

As for `CC(C)COC(=O)N[C@H](C(=O)N1C[C@H](S(=O)(=O)C2CCCCC2)C[C@H]1C(=O)N[C@@H](CC(F)F)C(=O)NCCc1c(F)cc(-c2nn[nH]n2)cc1F)C(C)C` [Compound 556], the pIC50 is more than 6.00.

`CC[C@H](NC(=O)[C@@H]1C[C@@H](c2ccccc2)CN1C(=O)[C@@H](NC(=O)OCC(C)C)C(C)C)C(=O)NCCc1c(F)cc(C(=O)O)cc1F` [Compound 525]: the pIC50 is more than 4.00.

`COC(=O)c1ccc(CCNC(=O)[C@H](CS)NC(=O)[C@@H]2C[C@@H](c3ccccc3)CN2C(=O)[C@H](CCC(=O)O)NS(=O)(=O)c2cccc3ccccc23)cc1` [Compound 514]: the pIC50 was more than 4.00.

Regarding `CC(C)COC(=O)N[C@H](C(=O)N1C[C@@H](OCc2ccccc2)C[C@H]1C(=O)N[C@@H](CC(F)F)C(=O)NCCc1c(F)cc(C(=O)O)cc1F)C(C)C` [Compound 527], the pIC50 is more than 5.00.

Take `CC(C)COC(=O)N[C@H](C(=O)N1C[C@H](c2ccccc2)C[C@H]1C(=O)N[C@@H](CC(F)F)C(=O)NCCc1cccc(/C=C/C(=O)O)c1)C(C)C` [Compound 558]: the pIC50 is more than 5.00.

`COCCOCO[C@@H]1C[C@@H](C(=O)N[C@@H](CC(F)F)C(=O)NCCc2c(F)cc(C(=O)O)cc2F)N(C(=O)[C@@H](NC(=O)OCC(C)C)C(C)C)C1` [Compound 505]: the pIC50 is more than 5.00.

`CC(C)[C@H](NC(=O)OCC1CCCC1)C(=O)N1C[C@H](C2CCCCC2)C[C@H]1C(=O)N[C@@H](CC(F)F)C(=O)NCCc1c(F)cc(C(=O)O)cc1F` [Compound 542]: the pIC50 was more than 5.00.

As to `CC(C)COC(=O)N[C@H](C(=O)N1C[C@H](C2CCCCC2)C[C@H]1C(=O)N[C@@H](CC(F)(F)F)C(=O)NCCc1c(F)cc(C(=O)O)cc1F)C(C)C` [Compound 529], the pIC50 was more than 5.00.

As for `CC(C)COC(=O)N[C@@H](CCC(=O)O)C(=O)N1C[C@H](OCc2ccccc2)C[C@H]1C(=O)N[C@@H](CS)C(=O)NCCc1ccccc1Cl` [Compound 507], the pIC50 is more than 5.00.

For `CC(C)COC(=O)N[C@H](C(=O)N1C[C@H](c2ccccc2)C[C@H]1C(=O)N[C@@H](CC(F)F)C(=O)NCCc1cc(/C=C/C(=O)O)ccc1F)C(C)C` [Compound 561], the pIC50 was more than 6.00.

Consider `CC(C)COC(=O)N[C@@H](CCC(=O)O)C(=O)N1C[C@H](O)C[C@H]1C(=O)N[C@@H](CS)C(=O)NCCc1ccccc1Cl` [Compound 503], for which the pIC50 was more than 4.00.

On to `CC(C)COC(=O)N[C@H](C(=O)N1C[C@H](c2ccccc2)C[C@H]1C(=O)N[C@@H](CC(F)F)C(=O)NCCc1cn(CCC(=O)O)c2ccccc12)C(C)C` [Compound 573], for which the pIC50 was more than 4.00.

As to `COc1cccc(S[C@@H]2C[C@@H](C(=O)N[C@@H](CC(F)F)C(=O)NCCc3c(F)cc(C(=O)O)cc3F)N(C(=O)[C@@H](NC(=O)OCC(C)C)C(C)C)C2)c1` [Compound 545], the pIC50 was more than 6.00.

Take `O=C(O)CC[C@H](NC(=O)[C@@H](O)c1ccccc1)C(=O)N1C[C@H](c2ccccc2)C[C@H]1C(=O)N[C@@H](CS)C(=O)NCCc1ccc(C(=O)O)cc1` [Compound 515]: the pIC50 was more than 4.00.

With `CC(C)COC(=O)N[C@H](C(=O)N1C[C@H](OCc2ccccc2)CC1C(=O)N[C@@H](CC(F)F)C(=O)NCCc1c(F)cc(C(=O)O)cc1F)C(C)C` (stereo partly drawn) [Compound 526], the pIC50 was more than 6.00.

As for `CC(Oc1ccc(F)c(CCNC(=O)[C@H](CC(F)F)NC(=O)[C@@H]2C[C@@H](C3CCCCC3)CN2C(=O)[C@@H](NC(=O)OCC(C)(C)C)C(C)C)c1F)C(=O)O` (mixture of isomers) [Compound 567], the pIC50 is more than 6.00.

As to `CC(C)COC(=O)N[C@H](C(=O)N1C[C@H](c2ccccc2)C[C@H]1C(=O)N[C@@H](CC(F)F)C(=O)NCCc1cccc(/C=C/C(=O)O)c1F)C(C)C` [Compound 560], the pIC50 is more than 6.00.

In the case of `CC(C)COC(=O)N[C@H](C(=O)N1C[C@H](OCc2ccc(C(=O)O)cc2)C[C@H]1C(=O)N[C@@H](CC(F)F)C(=O)NCCc1c(Cl)cccc1Cl)C(C)C` [Compound 509], the pIC50 is more than 4.00.

On to `CC(C)COC(=O)N[C@H](C(=O)N1C[C@H](C2CCCCC2)C[C@H]1C(=O)N[C@@H](CC(F)F)C(=O)NCCc1c(F)cc(C(=O)O)cc1F)C(C)C` [Compound 528], for which the pIC50 is more than 6.00.

For `CCCS(=O)(=O)[C@@H]1C[C@@H](C(=O)N[C@@H](CC(F)F)C(=O)NCCc2c(F)cc(C(=O)O)cc2F)N(C(=O)[C@@H](NC(=O)OCC(C)C)C(C)C)C1` [Compound 550], the pIC50 is more than 6.00.

In the case of `CC(C)COC(=O)N[C@H](C(=O)N1C[C@H](c2ccccc2)C[C@H]1C(=O)N[C@@H](CC(F)F)C(=O)NCCc1ccc(-c2nn[nH]n2)cc1)C(C)C` [Compound 518], the pIC50 was more than 5.00.

Turning to `CCCS[C@@H]1C[C@@H](C(=O)N[C@@H](CC(F)F)C(=O)NCCc2c(F)cc(C(=O)O)cc2F)N(C(=O)[C@@H](NC(=O)OCC(C)C)C(C)C)C1` [Compound 548], the pIC50 was more than 6.00.

With `CCC[S+]([O-])[C@@H]1C[C@@H](C(=O)N[C@@H](CC(F)F)C(=O)NCCc2c(F)cc(C(=O)O)cc2F)N(C(=O)[C@@H](NC(=O)OCC(C)C)C(C)C)C1` (stereo partly drawn) [Compound 549], the pIC50 is more than 5.00.

Regarding `CC(C)COC(=O)N[C@H](C(=O)N1C[C@H](S(=O)(=O)C2CCCCC2)C[C@H]1C(=O)N[C@@H](CC(F)F)C(=O)NCCc1c(F)cc(C(=O)O)cc1F)C(C)C` [Compound 553], the pIC50 is more than 6.00.

As for `CC(C)[C@H](NC(=O)OC1CCCC1)C(=O)N1C[C@H](C2CCCCC2)C[C@H]1C(=O)N[C@@H](CC(F)F)C(=O)NCCc1c(F)cc(C(=O)O)cc1F` [Compound 541], the pIC50 is more than 6.00.

With `CC(C)COC(=O)N[C@H](C(=O)N1C[C@H](C2CCCCC2)C[C@H]1C(=O)N[C@@H](CC(F)F)C(=O)NCCc1c(F)cc(C(=O)NS(C)(=O)=O)cc1F)C(C)C` [Compound 557], the pIC50 is more than 6.00.

Turning to `CCC(Oc1ccc(F)c(CCNC(=O)[C@H](CC(F)F)NC(=O)[C@@H]2C[C@@H](C3CCCCC3)CN2C(=O)[C@@H](NC(=O)OCC(C)C)C(C)C)c1F)C(=O)O` (mixture of isomers) [Compound 568], the pIC50 was more than 6.00.

As to `CC(C)COC(=O)N[C@@H](CCC(=O)O)C(=O)N1C[C@H](c2ccccc2)C[C@H]1C(=O)N[C@@H](CC(F)F)C(=O)NCCC1=CCCCC1` [Compound 511], the pIC50 is more than 4.00.

Staying with this assay, now noted: Table 6; full-length NS3/NS4A; read-out: Assay A.
On to `CC(C)[C@H](O)C(=O)N1C[C@H](OCCCc2ccccc2)CC1C(=O)N[C@@H](CC(F)F)C(=O)NCCc1c(F)cc(C(=O)O)cc1F` (stereo partly drawn) [Compound 616], for which the pIC50 is more than 4.00.

The assay is the same for the next values; noted with them: full-length NS3-NS4A heterodimer protein assay; read-out: Assay A (IC50 class).
With `CC(C)C[C@H](NC(=O)C1(Cc2ccsc2C(=O)O)Cc2ccccc2N1)C(=O)N[C@@H](CC(F)F)C(=O)NCCc1cc2ccccc2[nH]1` (single isomer, unassigned) [Compound 707a], the pIC50 was more than 4.00.

The values are drawn from US7119073B2, “Peptides and their use as inhibitors of hepatitis C virus ns3 protease” (Istituto Di Ricerche Di Biologia Molecolare P. Angeletti SpA, priority 2001, dated 2006).
